Reference: US20250170073A1, “SYNERGISTIC COMPOSITIONS FOR IMPROVING MINERAL BIOACCESSIBILITY” (priority 2022, published 2025)

Test: Simulated digestion model, mineral bioaccessibility
Assay type: in vitro ADME
Details: in the presence of lutein
Procedure: In vitro simulated gastrointestinal digestion was used for assessing mineral bioaccessibility in presence of the tested compounds.
Mineral bioaccessibility buffer (MBB) was prepared (NaCl; 6.6 mg/mL, MgSO4; 0.12 mg/mL, Glucose; 0.9 mg/mL, L-Ascorbic acid; 0.09 mg/mL, HEPES; 8.6 mg/mL at pH 6.5) with Calcium, Iron and Zinc (tricalcium phosphate; 1314.6 μg/mL, Calcium D-pantothenate; 28.5 μg/mL, Calcium Carbonate; 13.0 μg/mL, Iron Sulphate heptahydrate; 3.8 μg/mL, Iron Chloride; 12.5 μg/mL, Zinc Sulphate heptahydrate; 17.4 μg/mL, Zinc Chloride; 2.2 μg/mL) to achieve a total mineral content (Calcium; 520 μg/mL, Iron; 5.0 μg/mL, Zinc; 5.0 μg/mL), as well as soluble mineral content similar to that of infant formula. […]
The transit of CCP, Lutein, 2-PA and non-digestible Gos/Fos through the gastro-intestinal tract was mimicked using a three-phase dialysis model that was adapted from literature [Venema, 2020]. […] Calcium, Iron and Zinc in the dialysate were analyzed with ICP-OES spectrometry.
The average (n=3) total amount of Calcium, Iron and Zinc measured in the dialysate was considered bioaccessible. […]

For `CC1=C[C@H](O)CC(C)(C)[C@H]1/C=C/C(C)=C/C=C/C(C)=C/C=C/C=C(C)/C=C/C=C(C)/C=C/C1=C(C)C[C@@H](O)CC1(C)C` [lutein], which mineral bioaccessibility is on record?
Its mineral bioaccessibility is “significantly increased”.
